Assay results: ChEMBL document CHEMBL3044710, “Nematodetoxic aurovertin-type metabolites from a root-knot nematode parasitic fungus Pochonia chlamydosporia” (2010)
≈ marks a conversion by molar mass, not a printed value. Calls of active or inactive are those of the source. No cut-off for these calls is given here.

How the values were obtained:
Meloidogyne incognita [1] = assay: Nematodexic activity against Meloidogyne incognita (root-knot nematode) assessed as mortality at 500 mg/l after 96 hr; type: functional
Meloidogyne incognita [2] = assay: Nematodexic activity against eggs of Meloidogyne incognita (root-knot nematode) assessed as mean corrected egg hatching inhibition rate at 25 to 400 ug/ml at 28 degC measured after 7 to 13 days by normal binocular microscopic analysis; type: functional
Panagrellus redivivus [3] = assay: Nematodexic activity against mixed juvenile and adult stages of Panagrellus redivivus assessed as disruption of internal structure, vacuole formation and residual empty somatocysts in the dead worm at 28 degC measured after 48 hr by normal binocular microscopic analysis; type: functional, organism-based
Panagrellus redivivus [4] = assay: Nematodexic activity against mixed juvenile and adult stages of Panagrellus redivivus assessed as mean corrected mortality rate at 28 degC measured after 48 hr by normal binocular microscopic analysis; type: functional

| SMILES | mortality at 500 µg/mL (Meloidogyne incognita [1]) | inhibition (INH) (Meloidogyne incognita [2]) | Activity (Panagrellus redivivus [3]) | LC50 (Panagrellus redivivus [4]) |
| --- | --- | --- | --- | --- |
| C/C=C/[C@@H]1OC(=O)C=C[C@@H]1O [PHOMALACTONE] | 84% |  |  |  |
| COc1cc(=O)oc(/C=C/C=C/C=C/[C@@H]2O[C@@]3(C)C(C)O[C@](C)([C@H]2O)[C@@H]3O)c1C (some centres undefined) |  | <=5% |  |  |
| COc1cc(=O)oc(/C=C/C=C/C=C/C2OC3(C)C([C@H](C)O)OC(C)(C2O)C3O)c1C (some centres undefined) [AUROVERTIN F] |  | <=5% | Active | 88.6 µg/mL (≈ 204 µM) |
| COc1cc(=O)oc(/C=C/C=C/C=C/C2OC3(C)C([C@H](C)O)OC(C)(C2O)C3OC(C)=O)c1C (some centres undefined) [AUROVERTIN D] |  | <=5% | Active | 41.7 µg/mL (≈ 87.5 µM) |
| CCC1O[C@]2(C)[C@@H](O)[C@H](/C=C/C=C/C=C/c3oc(=O)cc(OC)c3C)O[C@]1(C)[C@H]2O (some centres undefined) |  | <=5% |  |  |
